From patent US20250376498A1, “FUSION PROTEINS COMPRISING AN IMPROVED GLP-1 RECEPTOR AGONIST AND USES THEREOF” (Guangzhou Innogen Pharmaceutical Group Co., Ltd., priority 2022, published 2025) come the findings set out here.

The subject of experiment [1] is SH-SY5Y neuronal cells. In words: TNF-α-induced decrease in SH-SY5Y cell viability (CCK-8). Format: cell-based. The following applies: 60 ng/ml TNF-α, 48 hours; YN-011 10, 100, 500 nM; GABA 100 μM. The protocol: SH-SY5Y neuronal cells were digested using 0.25% trypsin to prepare a single-cell suspension. The single-cell suspension was seeded in a 96-well plate at a density of 10,000 cells per well in 100 μl of medium. The plate was placed in a CO2 incubator overnight (37° C., 5% CO2) to allow cell adhesion. The medium was replaced with medium containing 10% FBS or 5% FBS, and cells were stimulated with 20, 40, 60, 80, or 100 ng/ml TNF-α for 48 hours. Each drug treatment was performed in six replicate wells. After 48 hours of drug treatment, 10 μl of CCK-8 solution was added to each well, and the plate was gently shaken to mix the reagents. The plate was then incubated in a CO2 incubator for 1-4 hours. The absorbance at 450 nm was measured using a microplate reader, and cell viability was calculated using the following formula:
[formula] • A (treated): OD value of wells containing cells, CCK-8 solution, and drug solution • A (control): OD value of wells containing cells and CCK-8 solution without drug solution • A (blank): OD value of wells without cells
Please refer to section 8.1 for the experimental procedure, but the drug treatment in this experiment is different from section 8.1. […]

The test system of experiment [2] is SH-SY5Y neuronal cells. In words: TNF-α-induced damage in SH-SY5Y cells (Hoechst 33342 live cell staining). Format: cell-based. The following applies: 60 ng/ml TNF-α, 48 hours; YN-011 10, 100, 500 nM; GABA 1, 10, 100 μM; combination 100 μM GABA + 100 nM YN-011. The protocol:
Digest the SH-SY5Y neuronal cells in a 10 cm culture dish using 0.25% trypsin to prepare a single-cell suspension. Seed the single-cell suspension into a 24-well plate. Place the culture plate in a CO2 incubator and pre-culture overnight at 37° C. with 5% CO2 to allow the cells to adhere. Treat the cells in each well with 20, 40, 60, or 80 ng/ml TNF-α using medium containing 5% FBS at 37° C. for 48 hours. Each drug treatment is performed in three replicate wells. Add the fluorescent dye Hoechst 33342 (Beyotime) at a dilution of 1:1000 to the wells, and incubate the plate at 37° C. for 10 minutes. Remove the culture medium, gently wash twice with PBS, and immediately take the plate to a fluorescence microscope for imaging (20× magnification). Capture 10 fields of view for each cell well and count the number of blue-stained positive cells in each field of view.
Please refer to section 8.7 for the experimental procedure, but the drug treatment in this experiment is different from that in section 8.7. In this experiment, the drug treatment is as follows: using medium containing 5% FBS, treat the cells in each well with 60 ng/ml TNF-α alone or co-treated with 10, 100, or 500 nM YN-011 at 37° C. for 48 hours. Each drug treatment is performed in three replicate wells. […]

“Also recorded” adds a separate entry of the source.

On to `NCCCC(=O)O` [GABA, γ-aminobutyric acid], for which the SH-SY5Y cell viability result in experiment [1] is listed as “significantly enhanced cell viability; also recorded: inhibiting TNF-α-induced reduction in SH-SY5Y cell viability”. For the same molecule, in experiment [2], the “TNF-α-induced damage in neuronal cells (Hoechst 33342 positive cells)” value is “protective effect”.

B1: YN-011: GLP-1 fusion protein of SEQ ID NO: 7: GLP-1 (A8G, G22E, R36G), linker peptide and IgG2/Fc domain (C222S, A330S, P331S) (protein)
chain: HGEGTFTSDVSSYLEEQAAKEFIAWLVKGGGSSGAPPPSGGGGSERKSCVECPPCPAPPVAGPSVFLFPPKPKDTLMISRTPEVTCVVVDVSHEDPEVQFNWYVDGVEVHNAKTKPREEQFNSTFRVVSVLTVVHQDWLNGKEYKCKVSNKGLPSSIEKTISKTKGQPREPQVYTLPPSREEMTKNQVSLTCLVKGFYPSDIAVEWESNGQPENNYKTTPPMLDSDGSFFLYSKLTVDKSRWQQGNVFSCSVMHEALHNHYTQKSLSLSPG
As to B1, the SH-SY5Y cell viability result in experiment [1] is reported as “significantly enhanced cell viability; also recorded: inhibiting TNF-α-induced reduction in SH-SY5Y cell viability”. Also, the “TNF-α-induced damage in neuronal cells (Hoechst 33342 positive cells)” value in experiment [2] was “protective effect”.
